The text below walks through data of patent publication US20230117034A1, “PYRAZOLOTRIAZINES” (Bayer Aktiengesellschaft, priority 2019, published 2023).

One test addresses CDK12/CycK (Homo sapiens, UniProt Q9NYV4). Kind of test: CDK12/CycK high ATP kinase assay (TR-FRET, 2 mM ATP). The test is classed as biochemical. The note with it: 2 mM ATP (high ATP); median; read-out: CDK12/CyclinK, 2 mM ATP (high ATP), IC50-[mol/l] (median). The procedure: In the context of the present invention, the term “IC50 CDK12 hATP” refers to the IC50 values obtained according to the assay described in this section (2.2) herein below, i.e. the IC50 values for the inhibition of CDK12 at high (2 mM) ATP.
CDK12/CycK-inhibitory activity of compounds of the present invention at 2 millimol/L adenosine-tri-phosphate (ATP) was quantified employing the TR-FRET (TR-FRET=Time Resolved Fluorescence Energy Transfer) based CDK12/CycK activity inhibition assay as described in the following paragraphs.
A complex of human recombinant CDK12 and human recombinant CycK (both N-terminally His-tagged, expression and purification as described above) was used as enzyme. As substrate for the kinase reaction biotinylated peptide biotin-Ahx-KFELLPTPPLSPSRRSGL (C-terminus in amid form) was used which can be purchased e.g. form the company Biosyntan (Berlin-Buch, Germany).
For the assay 50 nanoL of a 100 fold concentrated solution of the test compound in DMSO was pipetted into either a black low volume 384 well microtiter plate or a black 1536 well microtiter plate (both Greiner Bio-One, Frickenhausen, Germany), 2 microL of a solution of CDK12/CycK in aqueous assay buffer [25 millimol/L HEPES pH 7.5, 20 millimol/L MgCl2, 5 millimol/L β-glycerophosphate, 2 millimol/L EGTA, 1.0 millimol/L dithiothreitol, 0.01% (v/v) Nonidet-P40 (Sigma), 0.01% (w/v) bovine serum albumin] were added and the mixture was incubated for 15 min at 22° C. to allow pre-binding of the test compounds to the enzyme before the start of the kinase reaction. Then the kinase reaction was started by the addition of 3 microL of a solution ATP (3.33 millimol/L=>final conc. in the 5 microL assay volume is 2 millimol/L) and substrate (1.67 micromol/L=>final conc. in the 5 microL assay volume is 1 micromol/L) in assay buffer and the resulting mixture was incubated for a reaction time of 60 min at 22° C. The concentration of CDK12/CycK was adjusted depending of the activity of the enzyme lot and was chosen appropriate to have the assay in the linear range, typical concentrations were about 0.75 nanomol/L. The reaction was stopped by the addition of 3 microL of a solution of TR-FRET detection reagents (125 nanomol/L streptavidine-XL665 [Cisbio Bioassays, Codolet, France] and 0.67 nanomol/L anti-Phospho-c-Myc (Ser 62) (E1J4K)-antibody from Cell Signalling [#13748] and 2 nanomol/L LANCE EU-W1024 labeled anti-rabbit IgG antibody [Perkin-Elmer, product no. 0083]) in an aqueous EDTA-solution (133 millimol/L EDTA, 0.27% (w/v) bovine serum albumin in 66.7 millimol/L HEPES pH 7.5).
The resulting mixture was incubated 1 h at 22° C. to allow the formation of complex between the phosphorylated biotinylated peptide and the detection reagents. Subsequently the amount of phosphorylated substrate was evaluated by measurement of the resonance energy transfer from the Eu-chelate to the streptavidine-XL. Therefore, the fluorescence emissions at 620 nm and 665 nm after excitation at 350 nm was measured in a TR-FRET reader, e.g. a Pherastar FS (BMG Labtechnologies, Offenburg, Germany) or a Viewlux (Perkin-Elmer). The ratio of the emissions at 665 nm and at […] was taken as the measure for the amount of phosphorylated substrate. The data were normalised (enzyme reaction without inhibitor=0% inhibition, all other assay components but no enzyme=100% inhibition).

The test system of test [1] is CAL-120, human breast adenocarcinoma cells. Kind of test: Proliferation assay CAL-120 (crystal violet, 4 days). The test is classed as cell-based. The note with it: Homo sapiens, CAL-120, 96 h, CAL-120 cells, median, read-out: Prolif-CAL-120, IC50-[mol/l] (median). As for the experimental part:
Human tumour cells were originally obtained from the American Type Culture Collection (ATCC), or from the Deutsche Sammlung von Mikroorganismen und Zellkulturen (DSMZ, German Collection of Microorganisms and Cell Cultures). Cultivated tumour cells (CAL-120, human breast adenocarcinoma cells, DSMZ ACC-459; MDA-MB-231, human breast cancer cells, ATCC HTB-26) were plated at a density of 4,000 cells/well in a 96-well multititer plate in 200 microL of their respective growth medium supplemented 10% fetal calf serum. After 24 hours, the cells of one plate (zero-point plate) were stained with crystal violet (see below), while the medium of the other plates was supplemented with the test substances in various concentrations (0 micromol/L, as well as in the range of 0.01-10 micromol/L; the final concentration of the solvent dimethyl sulfoxide was adjusted to 0.1%) using a Tecan HP D300 Digital Dispenser. The cells were incubated for 4 days in the presence of test substances. Cell proliferation was determined by staining the cells with crystal violet: the cells were fixed by adding 20 microL/measuring point of an 11% glutaric aldehyde solution for 15 minutes at room temperature. After three washing cycles of the fixed cells with water, the plates were dried at room temperature. The cells were stained by adding 100 microL/measuring point of a 0.1% crystal violet solution (pH 3.0). After three washing cycles of the stained cells with water, the plates were dried at room temperature. The dye was dissolved by adding 100 microL/measuring point of a 10% acetic acid solution. The extinction was determined by photometry at a wavelength of 595 nm. The change of cell number, in percent, was calculated by normalization of the measured values to the extinction values of the zero-point plate (=0%) and the extinction of the untreated (0 μM) cells (=100%). The IC50 values (inhibitory concentration at 50% of maximal effect) were determined by means of a 4 parameter fit.

Some results are limits rather than exact numbers.

Sequence of CDK12/CycK (Q9NYV4 with tags, fused parts or gaps): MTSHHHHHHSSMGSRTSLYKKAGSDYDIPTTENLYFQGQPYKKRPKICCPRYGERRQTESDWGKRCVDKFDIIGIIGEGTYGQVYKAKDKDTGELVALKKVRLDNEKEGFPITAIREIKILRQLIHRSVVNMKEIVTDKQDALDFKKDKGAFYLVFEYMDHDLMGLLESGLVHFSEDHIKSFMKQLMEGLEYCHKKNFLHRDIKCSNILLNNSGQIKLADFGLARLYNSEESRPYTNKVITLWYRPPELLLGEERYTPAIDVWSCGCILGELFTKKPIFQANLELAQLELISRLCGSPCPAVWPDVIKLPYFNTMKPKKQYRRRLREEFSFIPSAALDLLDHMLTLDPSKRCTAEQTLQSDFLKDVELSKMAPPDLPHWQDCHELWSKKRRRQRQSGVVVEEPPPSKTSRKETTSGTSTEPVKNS
Sequence of CDK12/CycK (O75909 1-300 partner limits assumed): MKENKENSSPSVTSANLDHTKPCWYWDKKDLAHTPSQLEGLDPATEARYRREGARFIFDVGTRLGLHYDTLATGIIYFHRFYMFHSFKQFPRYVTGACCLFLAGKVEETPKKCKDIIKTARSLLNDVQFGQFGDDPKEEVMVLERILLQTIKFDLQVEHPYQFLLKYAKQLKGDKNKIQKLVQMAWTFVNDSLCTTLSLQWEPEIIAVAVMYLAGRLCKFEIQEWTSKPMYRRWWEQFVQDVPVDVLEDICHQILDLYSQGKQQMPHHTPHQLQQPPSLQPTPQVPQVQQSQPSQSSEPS

Regarding `C[C@@H]1CN(c2nc(NCc3nnc(-c4ccccc4)[nH]3)n3ncc(Br)c3n2)CCN1C.O=CO` [Example 130, 8-bromo-2-[(3R)-3,4-dimethylpiperazin-1-yl]-N-[(5-phenyl-4H-1,2,4-triazol-3-yl)methyl]pyrazolo[1,5-a][1,3,5]triazin-4-amine formate], the IC50 at CDK12/CycK came to 8440 nM; in test [1], 34.8 nM.

As for `Brc1cnn2c(NCc3nc4ccccc4[nH]3)nc(N3CCNCC3)nc12` [Example 128, N-[(1H-benzimidazol-2-yl)methyl]-8-bromo-2-(piperazin-1-yl)pyrazolo[1,5-a][1,3,5]triazin-4-amine], the IC50 came out at 10900 nM on CDK12/CycK and 12.7 nM in test [1].

With `Cc1cccc2[nH]c(CNc3nc(N4CCOCC4)nc4c(Br)cnn34)nc12` [Example 150, 8-bromo-N-[(4-methyl-1H-benzimidazol-2-yl)methyl]-2-(morpholin-4-yl)pyrazolo[1,5-a][1,3,5]triazin-4-amine], the IC50 at CDK12/CycK stood at 2660 nM; in test [1], 18.3 nM.

Consider `CCC1COCCN1c1nc(NCc2nc3ccccc3[nH]2)n2ncc(Br)c2n1` (stereo not drawn) [Example 116, N-(1H-benzimidazol-2-ylmethyl)-8-bromo-2-(3-ethylmorpholin-4-yl)pyrazolo[1,5-a][1,3,5]triazin-4-amine], for which the IC50 was found to be 6730 nM on CDK12/CycK and 47 nM in test [1].

Regarding `c1ccc2[nH]c(CNc3nc(N4CCOCC4)nc4c(-c5ccncc5)cnn34)nc2c1` [Example 111, N-[(1H-benzimidazol-2-yl)methyl]-2-(morpholin-4-yl)-8-(pyridin-4-yl)pyrazolo[1,5-a][1,3,5]triazin-4-amine hydrogen chloride (1/1)], the figures for the IC50 (at CDK12/CycK; in test [1]) were more than 1630 nM and 8.96 nM, respectively.

With `C[C@@H]1CN(c2nc(NCc3nnc(-c4ccccc4)[nH]3)n3ncc(Br)c3n2)C[C@H](C)N1` [Example 127, 8-bromo-2-[(3R,5S)-3,5-dimethylpiperazin-1-yl]-N-[(5-phenyl-4H-1,2,4-triazol-3-yl)methyl]pyrazolo[1,5-a][1,3,5]triazin-4-amine], the IC50 at CDK12/CycK is 9710 nM; in test [1], 28.2 nM.

Consider `Fc1ccc2[nH]c(CNc3nc(N4CCOCC4)nc4c(Br)cnn34)nc2c1` [Example 101, 8-bromo-N-[(5-fluoro-1H-benzimidazol-2-yl)methyl]-2-(morpholin-4-yl)pyrazolo[1,5-a][1,3,5]triazin-4-amine], for which the IC50 at CDK12/CycK worked out at 2250 nM; in test [1], 4.1 nM.

Consider `CC1(C)CN(c2nc(NCc3nnc(-c4ccccc4)[nH]3)n3ncc(C4CC4)c3n2)CCO1` [Example 94, 8-cyclopropyl-2-(2,2-dimethylmorpholin-4-yl)-N-[(5-phenyl-4H-1,2,4-triazol-3-yl)methyl]pyrazolo[1,5-a][1,3,5]triazin-4-amine], for which the results for the IC50 (on CDK12/CycK; in test [1]) were 8790 nM and 177 nM, respectively.

Regarding `Brc1cnn2c(NCc3nc4ccccc4[nH]3)nc(N3C[C@@H]4CCCN[C@@H]4C3)nc12` [Example 146, N-[(1H-benzimidazol-2-yl)methyl]-8-bromo-2-[(4aS,7aS)-octahydro-6H-pyrrolo[3,4-b]pyridin-6-yl]pyrazolo[1,5-a][1,3,5]triazin-4-amine], the values for the IC50 (on CDK12/CycK; in test [1]) were 8860 nM and 31 nM, respectively.

On to `Brc1cnn2c(NCc3nc4ccccc4[nH]3)nc(N3C[C@H]4C[C@@H]3CO4)nc12` [Example 102, N-[(1H-benzimidazol-2-yl)methyl]-8-bromo-2-[(1R,4R)-2-oxa-5-azabicyclo[2.2.1]heptan-5-yl]pyrazolo[1,5-a][1,3,5]triazin-4-amine], for which the IC50 at CDK12/CycK was found to be 6920 nM; in test [1], 27 nM.

For the compound `C[C@H]1CCCCN1c1nc(NCc2nc3ccccc3[nH]2)n2ncc(Br)c2n1` [Example 141, N-[(1H-benzimidazol-2-yl)methyl]-8-bromo-2-[(2S)-2-methylpiperidin-1-yl]pyrazolo[1,5-a][1,3,5]triazin-4-amine], the IC50 on CDK12/CycK was 1310 nM; in test [1], 24.5 nM.

For the compound `Brc1cnn2c(NCc3nnc(-c4ccccc4)[nH]3)nc(N3C[C@@H]4C[C@H]3CO4)nc12` [Example 120, 8-bromo-2-[(1S,4S)-2-oxa-5-azabicyclo[2.2.1]heptan-5-yl]-N-[(5-phenyl-4H-1,2,4-triazol-3-yl)methyl]pyrazolo[1,5-a][1,3,5]triazin-4-amine], the IC50 on CDK12/CycK was determined as 13200 nM; in test [1] it was 25.4 nM.

For `CN1CCN(c2nc(NCc3nc4ccccc4[nH]3)n3ncc(Br)c3n2)CC1=O` [Example 131, 4-(4-{[(1H-benzimidazol-2-yl)methyl]amino}-8-bromopyrazolo[1,5-a][1,3,5]triazin-2-yl)-1-methylpiperazin-2-one], the IC50 stood at 11100 nM on CDK12/CycK and 595 nM in test [1].

As to `Fc1ccc(-c2cnn3c(NCc4nc5ccccc5[nH]4)nc(N4CCOCC4)nc23)cc1` [Example 106, N-[(1H-benzimidazol-2-yl)methyl]-8-(4-fluorophenyl)-2-(morpholin-4-yl)pyrazolo[1,5-a][1,3,5]triazin-4-amine], the IC50 on CDK12/CycK was more than 9990 nM; in test [1], 47 nM.

As to `Brc1cnn2c(NCc3nnc(-c4ccccc4)[nH]3)nc(N3CCNCC3)nc12.O=CO` [Example 119, 8-bromo-N-[(5-phenyl-4H-1,2,4-triazol-3-yl)methyl]-2-piperazin-1-yl-pyrazolo[1,5-a][1,3,5]triazin-4-amine formate], the IC50 at CDK12/CycK worked out at 6620 nM; in test [1] it was 7.75 nM.

On to `c1cncc(-c2cnn3c(NCc4nc5ccccc5[nH]4)nc(N4CCOCC4)nc23)c1` [Example 108, N-[(1H-benzimidazol-2-yl)methyl]-2-(morpholin-4-yl)-8-(pyridin-3-yl)pyrazolo[1,5-a][1,3,5]triazin-4-amine], for which the values for the IC50 (on CDK12/CycK; in test [1]) were more than 20000 nM and 89.6 nM, respectively.

For `Fc1cc(F)cc(-c2nnc(CNc3nc(N4CCOCC4)nc4c(Br)cnn34)[nH]2)c1` [Example 105, 8-bromo-N-{[5-(3,5-difluorophenyl)-4H-1,2,4-triazol-3-yl]methyl}-2-(morpholin-4-yl)pyrazolo[1,5-a][1,3,5]triazin-4-amine], the IC50 is 1070 nM at CDK12/CycK and 7.36 nM in test [1].

On to `Brc1cnn2c(NCc3nc4ccccc4[nH]3)nc(N3C[C@@H]4C[C@H]3CO4)nc12` [Example 103, N-[(1H-benzimidazol-2-yl)methyl]-8-bromo-2-[(1S,4S)-2-oxa-5-azabicyclo[2.2.1]heptan-5-yl]pyrazolo[1,5-a][1,3,5]triazin-4-amine], for which the results for the IC50 (at CDK12/CycK; in test [1]) were 10300 nM and 46.5 nM, respectively.
